According to patent US7291621B2, “Substituted biaryl amides C5a receptor modulators” (Neurogen Corporation, priority 2002, dated 2007):

Target: T1, C5a receptor (Homo sapiens, UniProt P21730)
T1 construct: endogenous in cells; host or cells: U937 cells differentiated with 1 mM dibutyryl cAMP
T1 sequence (P21730 1-350): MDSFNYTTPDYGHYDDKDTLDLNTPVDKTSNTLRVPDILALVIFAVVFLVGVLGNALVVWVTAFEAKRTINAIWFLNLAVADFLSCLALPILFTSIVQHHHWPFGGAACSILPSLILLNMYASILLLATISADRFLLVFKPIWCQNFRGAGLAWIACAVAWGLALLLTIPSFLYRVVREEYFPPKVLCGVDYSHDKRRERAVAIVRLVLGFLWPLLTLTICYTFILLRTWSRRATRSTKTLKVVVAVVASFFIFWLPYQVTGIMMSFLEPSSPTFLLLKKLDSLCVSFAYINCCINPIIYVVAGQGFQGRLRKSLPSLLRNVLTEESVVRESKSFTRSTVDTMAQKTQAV
Test: standard assay of C5a receptor mediated calcium mobilization
Type: cell-based
Conditions: Table I; asterisk = tested in C5a receptor mediated calcium mobilization assay; read-out: Ca2+ Mob.
Description: U937 cells are grown in differentiation media (1 mM dibutyrl cAMP in RPMI 1640 medium containing 10% fetal bovine serum) for 48 hrs at 37° C. then reseeded onto 96-well plates suitable for use in a FLIPR™ Plate Reader (Molecular Devices Corp., Sunnyvale Calif.). Cells are grown an additional 24 hours (to 70-90% confluence) before the assay. The cells are then washed once with Krebs Ringer solution. FLUO-3 calcium sensitive dye (Molecular Probes, Inc. Eugene, Oreg.) is added to 10 μg/mL and incubated with the cells at room temperature for 1 to 2 hours. The 96 well plates are then washed to remove excess dye. Fluorescence responses, measured by excitation at 480 nm and emission at 530 nm, are monitored upon the addition of human C5a to the cells to a final concentration of 0.01-30.0 nM, using the FLIPR™ device (Molecular Devices).
The calcium mobilization assay described above may be readily adapted for identifying test compounds that have agonist or antagonist activity at the human C5a receptor.
For example, in order to identify antagonist compounds, differentiated U937 cells are washed and incubated with Fluo-3 dye as described above. One hour prior to measuring the fluorescence signal, a subset of the cells is incubated with 1 μM of at least one compound to be tested. The fluorescence response upon the subsequent addition of 0.3 nM (final concentration) human recombinant C5a is monitored using the FLIPR™ plate reader. Antagonist compounds elicit at least a 2-fold decrease in the fluorescence response relative to that measured in the presence of human C5a alone. Preferred antagonist compounds elicit at least a 5-fold, preferably at least a 10-fold, and more preferably at least a 20-fold decrease in the fluorescence response relative to that measured in the presence of human C5a alone.

| Ki [nM] | SMILES |
| --- | --- |
| < 1000 | COc1ccccc1-c1ccccc1C(=O)N(Cc1ccccc1)Cc1ccccc1 [compound 43, N,N-dibenzyl-2′-methoxy-1,1′-biphenyl-2-carboxamide] |
| < 1000 | Cc1csc(-c2ccccc2C(=O)N(Cc2ccccc2)C2Cc3ccccc3C2)c1 [compound 59, N-benzyl-N-(indan-2-yl)-2-(4-methylthien-2-yl)benzamide] |
| < 1000 | Cc1cccc(-c2ccccc2)c1C(=O)N(Cc1ccc(F)cc1)C1Cc2ccccc2C1 [compound 125, N-(indan-2-yl)-N-(4-fluorobenzyl)-3-methyl-1,1′-biphenyl-2-carboxamide] |
| < 1000 | Cc1ccc(-c2cccc(F)c2C(=O)N(Cc2ccccc2)C2Cc3ccccc3C2)s1 [compound 114, N-benzyl-N-(indan-2-yl)-2-fluoro-6-(5-methylthien-2-yl)benzamide] |
| < 1000 | O=C(c1ccccc1-c1ccccc1)N(Cc1ccccc1)C1Cc2ccccc2C1 [compound 60, N-benzyl-N-(indan-2-yl)-1,1′-biphenyl-2-carboxamide] |
| < 1000 | Cc1ccc(-c2ccccc2C(=O)N(Cc2ccc(F)cc2)C2Cc3ccccc3C2)cc1 [compound 91, N-(indan-2-yl)-N-(4-fluorobenzyl)-4′-methyl-1,1′-biphenyl-2-carboxamide] |
| < 1000 | O=C(c1ccccc1-c1ccc(C(F)(F)F)cc1)N(Cc1ccccc1)Cc1ccccc1 [compound 42, N,N-dibenzyl-4′-(trifluoromethyl)-1,1′-biphenyl-2-carboxamide] |
| < 1000 | COc1cccc(CN(C(=O)c2cc(OC)ccc2-c2ccsc2)C2Cc3ccccc3C2)c1 [compound 104, N-(indan-2-yl)-5-methoxy-N-(3-methoxybenzyl)-2-thien-3-ylbenzamide] |
| < 1000 | O=C(c1ccccc1-c1cccc(F)c1)N(Cc1ccccc1)Cc1ccccc1 [compound 39, N,N-dibenzyl-3′-fluoro-1,1′-biphenyl-2-carboxamide] |
| < 1000 | O=C(c1ccccc1-c1ccccc1F)N(Cc1ccccc1)C1CCc2ccccc21 (stereo not shown) [compound 61, N-benzyl-N-(indan-1-yl)-2′-fluoro-1,1′-biphenyl-2-carboxamide] |
| < 1000 | COc1cccc(CN(C(=O)c2cc(Cl)ccc2-c2ccccc2)C2Cc3ccccc3C2)c1 [compound 140, 4-chloro-N-(indan-2-yl)-N-(3-methoxybenzyl)-1,1′-biphenyl-2-carboxamide] |
| < 1000 | O=C(c1c(O)cccc1-c1ccccc1)N(Cc1ccccc1)C1Cc2ccccc2C1 [compound 69, N-benzyl-N-(indan-2-yl)-3-hydroxy-1,1′-biphenyl-2-carboxamide] |
| < 1000 | COc1ccc(-c2ccccc2C(=O)N(Cc2ccccc2)Cc2ccccc2)c(OC)c1 [compound 45, N,N-dibenzyl-2′,4′-dimethoxy-1,1′-biphenyl-2-carboxamide] |
| < 1000 | O=C(c1ccccc1-c1cccs1)N(Cc1ccccc1)C1Cc2ccccc2C1 [compound 63, N-benzyl-N-(indan-2-yl)-2-thien-2-ylbenzamide] |
| < 1000 | COc1cccc(-c2ccccc2C(=O)N(Cc2cccc(C)c2)C2Cc3ccccc3C2)c1 [compound 98, N-(indan-2-yl)-3′-methoxy-N-(3-methylbenzyl)-1,1′-biphenyl-2-carboxamide] |
| < 1000 | COc1ccc(CN(C(=O)c2c(C)cccc2-c2ccccc2)C2Cc3ccccc3C2)cc1 [compound 128, N-(indan-2-yl)-N-(4-methoxybenzyl)-3-methyl-1,1′-biphenyl-2-carboxamide] |
| < 1000 | O=C(c1ccccc1-c1cccc(Cl)c1Cl)N(Cc1ccccc1)Cc1ccccc1 [compound 51, N,N-dibenzyl-2′,3′-dichloro-1,1′-biphenyl-2-carboxamide] |
| < 1000 | Cc1ccc(-c2cccc(C)c2C(=O)N(Cc2ccccc2)C2Cc3ccccc3C2)s1 [compound 115, N-benzyl-N-(indan-2-yl)-2-methyl-6-(5-methylthien-2-yl)benzamide] |
| < 1000 | Cc1ccc(-c2ccccc2C(=O)N(Cc2ccccc2)Cc2ccccc2)cc1 [compound 55, N,N-dibenzyl-4′-methyl-1,1′-biphenyl-2-carboxamide] |
